Assay results taken from publication PMC5431086, “The Rational Design of Therapeutic Peptides for Aminopeptidase N using a Substrate-Based Approach” (Scientific Reports, 2017).
Positions of bridges follow the written chain, without caps; N, C: chain ends. Non-standard residues stand in square brackets, D forms with d. Residues, ends and D or L forms follow the SMILES beside them. Primed or numbered codes have the meaning given here. No end group written: not given here. FITC′ = fluorescein isothiocyanate label; Nle = CCCC[C@H](N)C(=O)O

Legend:
hAPN (aminopeptidase N) = biological target: T1, hAPN (aminopeptidase N) (Homo sapiens, UniProt P15144); test: Inhibition of cleavage of fluorogenic alanine substrate (H-Ala-AMC) by APN; type: biochemical
T1 construct: human APN ecdomain (residues 66–967) were expressed and purified as previously described; honeybee-melittin signal peptide (N); His6 (C); made in house; host or cells: insect cells
Experimental: Five-residue long peptides containing P1–P4′ residues from primary cleavages in the library were synthesized and tested for their ability to prevent the cleavage of a fluorogenic alanine substrate by hAPN.
The peptides used in this study were custom synthesized by AAPPTEC of Louisville, KY using traditional Fmoc solid-phase peptide synthesis. All of the peptides were purified and characterized by AAPPTEC. […] Inhibition assays were performed in triplicate in a 100 mM Tris pH 7.2, Brij 35 0.0002% w/v assay buffer at 37 °C with 0.1 μM APN and 100 μM H-Ala-AMC (fluorophore). Values were recorded by Infinite pro plate reader every 2 minutes for 30 minutes with laser parameters set for excitation at 355 nm and emission at 460 nm.

PC3 cells [1] = test: Clonogenic survival assay, PC3; type: cell-based
Experimental: (§1) The potential therapeutic efficacy of cyc-LHSPW was next tested in vitro using the PC3 and DU145 cell lines. […] Prior to in vivo therapeutic efficacy studies, a toxicity study was performed with the i.v. administration of cyc-LHSPW. […] Mice bearing established PC3 and DU145 xenografts were treated systemically via tail vein injection with 40 mg/kg of the tumor homing APN peptide cyc-NGR or the cyc-LHSPW peptide t.i.w. x4 (Fig. 6B). […] This therapeutic effect persisted to the end of the study with the cyc-LHSPW-treated mice having a tumor volume of 309.3 ± 92.7 mm^3 at day 35. […] PC3 tumors were removed and stained for the cellular proliferation marker Ki67.
(§2) Figure 6 The therapeutic evaluation of cyc-LHSPW in vivo and in vitro. (A) The effect of the three peptides cyc-LHSPW, LHSPW and cyc-nHSPW on the clonogenic survival of APN-expressing PC3 cells and APN-null DU145 cells. (B) Tumor growth of PC3 and DU145 xenograft mice treated with 40 mg/kg of cyc-LHSPW, cyc-NGR or saline control three times a week for four weeks. […] Statistical significance of cyc-LHSPW compared with control is denoted by: *P < 0.05; and **P < 0.01, as determined by the Student t test. […]
(§3) The clonogenic survival assays were conducted as previously described. […] Tumor measurements were made twice weekly with calipers and the tumor volume (in mm^3) was calculated by the formula 0.5236 × length (L) × width (W) × height (H). […]

DU145 cells [2] = test: Clonogenic survival assay, DU145; type: cell-based
Experimental: as §1, §2, §3

PC3 cells [3] = test: Flow cytometry binding to APN-expressing PC3 cells; type: cell-based; settings: 500 nmol/L, 60 minutes, 4 °C
Experimental: (§4) Next, the specificity of the lead peptide inhibitor cyc-LHSPW was tested against a panel of cancer-associated proteases with wide-ranging substrate specificities (Fig. 5A). APN was the only protease inhibited by cyc-LHSPW with chymotrypsin, trypsin, PSA, KLK7, aminopeptidase A, and the exopeptidase FAP all having Ki values above 100 μM. Having assessed selectivity for purified APN, we next evaluated the ability of cyc-LHSPW to preferentially bind to cells that express surface APN using flow cytometry (Fig. 5B). […] The expression of cell surface-associated APN was examined in the androgen receptor negative neuroendocrine prostate cancer cell lines PC3 and DU145 using a commercially available antibody. […] The peptide was next tested on frozen PC3 and DU145 tumor xenografts sections.
(§5) Figure 5 Determining the specificity of cyc-LHSPW for APN. (A) The cyc-LHSPW peptide was specific inhibitor of APN when compared to a panel of proteases. (B) Fluorescence microscopy of frozen PC3 (left) and DU145 (right) xenograft sections with cyc-LHSPW-(Gly)4-FITC. Sections were incubated with 250 nM of cyc-LHSPW-(Gly)4-FITC overnight and then visualized. The merged fluoresence channels are cyc-LHSPW-(Gly)4-FITC (green) and nuclei (DAPI, blue). (C) Analysis of APN inhibitor binding to PC3 (left) and DU145 cells (right) by flow cytometry. […]

DU145 cells [4] = test: Flow cytometry binding to APN-null DU145 cells; type: cell-based; settings: 500 nmol/L, 60 minutes, 4 °C
Experimental: as §4, §5

[5] = system: frozen PC3 and DU145 tumor xenografts sections; test: Fluorescence microscopy of frozen tumor xenograft sections; settings: 250 nM overnight, PC3 vs DU145 sections
Experimental: as §4, §5

T1 sequence (P15144 66-967): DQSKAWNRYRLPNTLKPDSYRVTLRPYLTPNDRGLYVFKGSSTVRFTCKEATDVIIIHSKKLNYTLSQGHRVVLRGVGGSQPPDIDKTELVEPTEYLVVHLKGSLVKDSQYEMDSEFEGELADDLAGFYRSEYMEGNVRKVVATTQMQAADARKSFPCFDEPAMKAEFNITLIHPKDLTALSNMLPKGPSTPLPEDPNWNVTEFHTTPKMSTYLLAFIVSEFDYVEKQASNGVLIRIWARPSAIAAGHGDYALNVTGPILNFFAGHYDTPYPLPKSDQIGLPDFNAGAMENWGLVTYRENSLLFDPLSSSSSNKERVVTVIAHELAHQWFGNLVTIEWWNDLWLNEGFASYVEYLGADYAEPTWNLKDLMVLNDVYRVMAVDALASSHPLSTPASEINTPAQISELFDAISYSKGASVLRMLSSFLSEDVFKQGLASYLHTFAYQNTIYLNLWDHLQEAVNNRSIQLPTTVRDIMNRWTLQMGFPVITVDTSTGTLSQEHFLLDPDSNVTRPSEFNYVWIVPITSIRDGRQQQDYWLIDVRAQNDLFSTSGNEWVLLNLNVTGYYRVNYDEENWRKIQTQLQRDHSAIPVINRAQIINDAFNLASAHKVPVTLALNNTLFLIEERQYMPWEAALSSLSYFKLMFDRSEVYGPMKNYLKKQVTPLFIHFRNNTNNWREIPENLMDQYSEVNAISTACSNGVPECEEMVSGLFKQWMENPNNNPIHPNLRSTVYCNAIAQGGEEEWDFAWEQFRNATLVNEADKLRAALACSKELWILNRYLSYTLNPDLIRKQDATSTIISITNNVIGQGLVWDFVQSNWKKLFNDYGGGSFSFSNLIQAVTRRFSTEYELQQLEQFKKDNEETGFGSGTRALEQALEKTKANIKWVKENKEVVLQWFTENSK

Row | Molecule | inhibition of APN (in words) (hAPN (aminopeptidase N)) | clonogenic survival (PC3 cells [1]) | clonogenic survival (DU145 cells [2]) | binding to cells by flow cytometry (PC3 cells [3]) | binding to cells by flow cytometry (PC3 cells [3]; listed as FITC labeled cyc-LHSPW) | binding to cells by flow cytometry (DU145 cells [4]) | labeling of xenograft sections by fluorescence microscopy [5]
1 | CCCC[C@@H]1NC(=O)[C@@H](N)CSSC[C@@H](C(=O)O)NC(=O)[C@H](Cc2c[nH]c3ccccc23)NC(=O)[C@@H]2CCCN2C(=O)[C@H](CO)NC(=O)[C@H](Cc2c[nH]cn2)NC1=O [cyc-nHSPW, Cys-nHSPW-Cys] (H-C[Nle]HSPWC-OH; disulfide 1-7; N-terminus and C-terminus assumed) | eliminated any measureable inhibition of APN | No significant biological effect | No significant biological effect |  |  |  | 
2 | cyc-LHSPW-(Gly)4-FITC: fluorophore-containing version of cyc-LHSPW with a (Gly)4-FITC group coupled to the C-terminal cysteine (CLHSPWCGGGG-{FITC′}; disulfide 1-7) |  |  |  | selectively labeled the APN-expressing PC3 cells over the APN-null DU145 cells | preferentially bound to PC3 cells | no noticeable labelling of DU145 cells | Preferential labeling of the PC3 xenograft section was evident
